The source of these data is US11952387B2, “Bicyclic heteroaromatic ring derivative” (priority 2018, dated 2024).

This test relates to HRV14. In words: Inhibitory activity against human rhinovirus infection and replication (quantitative real-time PCR). The settings on record: Human rhinovirus sp., MRC5; 100 nmol/L test compound; MRC-5 cells infected with HRV14 at MOI=0.2; 48 hours; viral load normalized to 18s rRNA; read-out: Percent Inhibition. Type of test: cell-based. As to the method:
Evaluation of inhibitory activity against human rhinovirus infection and replication (by quantitative real-time PCR)
A required amount of a test compound was weighed off and dissolved in dimethyl sulfoxide (DMSO) to yield a 10 mmol/L stock solution. Next, the stock solution was diluted with a medium for viral infection (minimum essential medium (MEM) supplemented with 2% fetal bovine serum, 5% Tryptose phosphate broth, and 30 mmol/L MgCl2) to prepare 100 nmol/L and 1000 nmol/L of test compound solutions. MRC-5 (human fetal lung fibroblast: ATCC) was suspended at a density of 30000 cells/mL in cell culture medium (MEM supplemented with 10% fetal bovine serum), and 625 μL of the suspension per well was seeded into a 24-well cell culture plate and cultured at 37° C. in 5% CO2. After 72 hours, it was confirmed that the plate had become 80% confluent. The plate was washed with 625 μL of phosphate-buffered physiological saline (Ca/Mg-free; PBS-) once, and 625 μL of the test compound solution prepared just before use was immediately added to the plate. After 30 minutes, the medium was removed followed by addition of 187.5 μL of the test compound solution that had been prepared such that the cells were infected with HRV14 (ATCC) at multiplicity of infection (MOI)=0.2. The cells were then cultured at 35° C. in 5% CO2. After additional 2 hours, 625 μL of the test compound solution prepared just before use was added, and the cells were cultured at 35° C. in 5% CO2. After 48 hours, the cells were washed with 625 μL of PBS- once, and total RNA was extracted from the cells using RNeasy (R) plus kit (Qiagen) according to the manufacturer's instruction. Subsequently, cDNA was synthesized using High-Capacity cDNA Reverse Transcription Kit (Thermo Fisher Scientific). Finally, quantitative real-time PCR was performed in 7500 Fast Real-time PCR system (Life technologies) to measure HRV14 and 18s rRNA. The measurement protocol consisted of the initial denaturation phase at 95° C. for 20 seconds followed by 40 cycles of the denaturation step at 95° C. for 3 seconds and the annealing/elongation step at 60° C. for 30 seconds. The primers used were HRV14 forward primer set forth in SEQ ID NO: 1 and HRV14 reverse primer set forth in SEQ ID NO: 2, and the probe is set forth in SEQ ID NO: 3.
18s rRNA was measured using Eukaryotic 18S rRNA Endogenous Control (Applied Biosystems). According to Equation 1, 18s ribosomal RNA was used as an internal standard to normalize the viral load of HRV14: Viral load of HRV14=The amount of HRV14 in virus-infected cells/the amount of 18s rRNA in virus-infected cells Equation 1
Inhibitory activity of test compounds was calculated as a percent inhibition (%) according to Equation 2: Percent inhibition (%)=[the viral load of HRV in virus-infected cells in the absence of the test compound −the viral load of HRV in virus-infected cells in the presence of the test compound]/[the viral load of HRV in virus-infected cells in the absence of the test compound]×100 Equation 2
The results of using 100 nmol/L test compound solutions were shown in the tables below according to Examples. In the tables, percent inhibition was expressed as follows: percent inhibition >80%: +++, 80%≥percent inhibition >50%: ++, and 50%≥percent inhibition:+.

With `Cc1nc2sc(C(C)(C)O)nn2c1-c1ccc(C(F)(F)F)c(S(=O)(=O)CC(C)(C)O)c1` [Example 2-27], the inhibition at 0.1 µM was greater than 80%.
With `COC(C)(C)c1nn2c(-c3ccc(C(F)(F)F)c(S(=O)(=O)N[C@H]4CC[C@H](O)CC4)c3)c(C)nc2s1` [Example 1-29] the figure was greater than 80%; with `Cc1nc2sc(C(C)(C)O)nn2c1-c1ccc(C(F)(F)F)c(S(=O)(=O)C2CN(S(C)(=O)=O)C2)c1` [Example 9-1], greater than 80%; with `COc1ccc(-c2c(C)nc3sc(C(C)(C)O)nn23)cc1S(=O)(=O)Nc1ccc(C#N)cc1` [Example 21-20], no more than 50%.
In the case of `COc1ccc(-c2c(C)nc3sc(C(O)(C4CC4)C4CC4)nn23)cc1S(=O)(=O)CC(C)(C)C#N` [Example 2-98] it was greater than 80%; in that of `COc1ccc(-c2c(C)nc3sc(C(C)(C)O)nn23)cc1S(=O)(=O)Cc1ccc(N)cc1` [Example 26], no more than 50%; in that of `COc1ccc(-c2c(C)nc3sc(C(C)(C)O)nn23)cc1S(=O)(=O)[C@@H]1CC[C@](C)(O)C1` [Example 2-70], no more than 50%.
In the case of `COc1ccc(-c2c(C)nc3sc(C(C)(C)O)nn23)cc1S(=O)(=O)Nc1ccc(O)cc1` [Example 2-86] it was greater than 80%; in that of `Cc1nc2sc(C(C)(C)O)nn2c1-c1ccc(C(F)(F)F)c(S(=O)(=O)CC2(CO)COC2)c1` [Example 2-35], 50 to 80%.
Take `COc1c(F)cc(-c2c(C)nc3sc(C(C)(C)C)cn23)cc1S(=O)(=O)N[C@H]1CC[C@@H](O)CC1` [Example 2-3]: the inhibition at 0.1 µM is greater than 80%.
In the case of `COc1ccc(-c2c(C)nc3sc(C(C)(C)O)nn23)cc1S(=O)(=O)C1CCC(=O)CC1` [Example 13] it was no more than 50%.
Consider `Cc1nc2sc(C(C)(C)O)nn2c1-c1ccc(C(F)(F)F)c(S(=O)(=O)N[C@H]2CC[C@@H](O)CC2)c1` [Example 1-26], for which the inhibition at 0.1 µM was greater than 80%.
For `COc1ncc(-c2c(C)nc3sc(C4CC4)nn23)cc1S(=O)(=O)N[C@H]1CC[C@@H](O)CC1` [Example 1-16], the inhibition at 0.1 µM fell in the range of 50 to 80%.
With `Cc1nc2sc(C(C)(C)O)nn2c1-c1ccc(C(F)(F)F)c(S(=O)(=O)NC2(C(C)(C)O)CC2)c1` [Example 3-2] the figure was greater than 80%; with `COc1ccc(-c2c(C)nc3sc(C)cn23)cc1S(=O)(=O)Nc1ccc(F)cc1` [Example 1-51], 50 to 80%; with `COc1ccc(-c2c(C)nc3sc(C(C)(C)O)nn23)cc1S(=O)(=O)N[C@H]1CC[C@@](C)(O)CC1` [Example 21-13], no more than 50%.
With `Cc1nc2sc(C(C)(C)O)nn2c1-c1ccc(C(F)(F)F)c(S(=O)(=O)NCC(C)(C)O)c1` [Example 2-21] the figure was greater than 80%; with `COc1ccc(-c2c(C)nc3sc(C(C)C)cn23)cc1S(=O)(=O)N[C@H]1CC[C@@H](O)CC1` [Example 1-46], greater than 80%; with `COc1ncc(-c2c(C)nc3sc(C(C)(C)C)cn23)cc1S(=O)(=O)N[C@H]1CC[C@@H](O)CC1` [Example 1-13], greater than 80%.
For the molecule `COc1ccc(-c2c(C)nc3sc(C(C)(C)O)nn23)cc1S(=O)(=O)CC(C)(C)CO` [Example 2-50], the inhibition at 0.1 µM was no more than 50%.
As for `COc1ccc(-c2c(C)nc3sc(C(C)(C)O)nn23)cc1S(=O)(=O)N[C@H]1C[C@H](CO)C1` [Example 21-5], the inhibition at 0.1 µM is no more than 50%.
In the case of `CCOc1ccc(-c2c(C)nc3sc(C(C)(C)O)nn23)cc1S(=O)(=O)CC(C)(C)O` [Example 2-57] it was 50 to 80%.
With `Cc1nc2sc(C(C)(C)O)nn2c1-c1ccc(C(F)(F)F)c(S(=O)(=O)C2COC2)c1` [Example 2-28] the figure was greater than 80%; with `COc1ncc(-c2c(C)nc3sc(C(C)(C)O)nn23)cc1S(=O)(=O)N[C@H]1CC[C@H](O)CC1` [Example 1-24], no more than 50%; with `COc1ccc(-c2c(C)nc3sc(C(C)(C)O)cn23)cc1S(=O)(=O)NC(C)(C)CO` [Example 2-4], no more than 50%.
With `COc1ncc(-c2c(C)nc3sc(C(C)(C)C#N)nn23)cc1S(=O)(=O)N[C@H]1CC[C@@H](O)CC1` [Example 1-18] the figure was 50 to 80%; with `COc1ccc(-c2c(C)nc3sc(C(C)(C)O)nn23)cc1S(=O)(=O)N[C@H]1C[C@H](O)C1` [Example 21-8], 50 to 80%.
For the molecule `Cc1nc2sc(C(C)(C)O)nn2c1-c1ccc(C(F)(F)F)c(S(=O)(=O)NC23CCC(O)(CC2)CC3)c1` [Example 2-10], the inhibition at 0.1 µM is greater than 80%.
In the case of `COc1ccc(-c2c(C)nc3sc(C(C)(C)O)nn23)cc1S(=O)(=O)C1(C(C)(C)O)CC1` [Example 2-66] it was greater than 80%.
On to `COc1c(F)cc(-c2c(C)nc3sc(C(C)(C)O)nn23)cc1S(=O)(=O)NC(C)(C)CO` [Example 2-29], for which the inhibition at 0.1 µM is greater than 80%.
With `C=C(C)c1cn2c(-c3ccc(OC)c(S(=O)(=O)N[C@H]4CC[C@@H](O)CC4)c3)c(C)nc2s1` [Example 25] the figure was 50 to 80%; with `Cc1nc2sc(C(C)(C)C)cn2c1-c1ccc(C#N)c(S(=O)(=O)N[C@H]2CC[C@@H](O)CC2)c1` [Example 1-10], greater than 80%; with `COc1ccc(-c2c(C)nc3sc(C(C)(C)O)nn23)cc1S(=O)(=O)C1CC1` [Example 1-37], 50 to 80%.
With `Cc1nc2sc(C(C)(C)O)nn2c1-c1ccc(C(F)(F)F)c(S(=O)(=O)C2CN(C(N)=O)C2)c1` [Example 11] the figure was no more than 50%; with `COc1ccc(-c2c(C)nc3sc(C(C)(C)O)nn23)cc1S(=O)(=O)NC[C@H]1C[C@H](O)C1` [Example 21-6], no more than 50%; with `COc1ccc(-c2c(C)nc3sc(C(C)(C)O)nn23)cc1S(=O)(=O)[C@]1(C2CC2)C[C@H](O)C1` [Example 2-72], no more than 50%.
For the molecule `COc1ccc(-c2c(C)nc3sc(C(C)(C)O)nn23)cc1S(=O)(=O)N[C@H]1CC[C@@H](O)CC1` [Example 1-14], the inhibition at 0.1 µM is 50 to 80%.
`Cc1nc2sc(C(C)(C)O)nn2c1-c1ccc(C(F)(F)F)c(S(=O)(=O)C2CN(C)C2)c1` [Example 12-1]: the inhibition at 0.1 µM is 50 to 80%.
For `Cc1ccc(-c2c(C)nc3sc(C(C)(C)O)nn23)cc1S(=O)(=O)CC(C)(C)O` [Example 2-39], the inhibition at 0.1 µM was greater than 80%.
On to `COc1ccc(-c2c(C)nc3sc(C(C)(C)O)cn23)cc1S(=O)(=O)C[C@H]1CC[C@@H](O)CC1` [Example 1-27], for which the inhibition at 0.1 µM is no more than 50%.
With `COc1ccc(-c2c(C)nc3sc(C4(O)CC4)cn23)cc1S(=O)(=O)N[C@H]1CC[C@@H](O)CC1` [Example 22] the figure was no more than 50%; with `COc1ccc(-c2c(C)nc3sc(C(C)(C)O)nn23)cc1S(=O)(=O)C1(C(C)(C)O)CC(F)(F)C1` [Example 2-67], greater than 80%.
With `COc1ccc(-c2c(C)nc3sc(C(C)(C)O)nn23)cc1S(=O)(=O)C[C@H]1CC[C@@H](O)CC1` [Example 1-34] the figure was 50 to 80%.
`COc1ccc(-c2c(C)nc3sc(C(C)(C)O)nn23)cc1S(=O)(=O)[C@H]1C[C@@H](O)C1` [Example 2-54]: the inhibition at 0.1 µM is no more than 50%.
In the case of `Cc1nc2sc(C(C)(C)O)nn2c1-c1ccc(C(F)(F)F)c(S(=O)(=O)C2CN(C(=O)OC(C)(C)C)C2)c1` [Example 2-36] it was greater than 80%.
